Assay results reported in the NIST ThermoML archive (doi:10.1021/je301279x).
Numbers after ± are expanded uncertainties.

What was measured:
[1] = Drop volume
[2] = xn = mol fraction of the nth substance listed; conditions: for surface tension liquid-gas: Drop volume; for mass density: 800 kPa, Liquid, Vibrating tube method

With `NCCO` [2-aminoethan-1-ol] the surface tension liquid-gas ([1]; 293.15 K) was 48.48 ± 0.84 mN/m, the surface tension liquid-gas ([1]; 303.15 K) was 47.64 ± 0.83 mN/m and the surface tension liquid-gas ([1]; 313.15 K) was 46.88 ± 0.83 mN/m.

For `NCCO` [2-aminoethan-1-ol] + O, the surface tension liquid-gas ([2]; 303.15 K, x1 = 0.0687) was 66.7 ± 2.9 mN/m, the surface tension liquid-gas ([2]; 303.15 K, x1 = 0.1122) was 63.7 ± 2.8 mN/m and the surface tension liquid-gas ([2]; 303.15 K, x1 = 0.1643) was 61.5 ± 2.7 mN/m. The surface tension liquid-gas ([2]; 303.15 K, x1 = 0.2277) was 59.6 ± 2.7 mN/m, the surface tension liquid-gas ([2]; 303.15 K, x1 = 0.3067) was 57.4 ± 2.6 mN/m and the surface tension liquid-gas ([2]; 303.15 K, x1 = 0.4076) was 54.5 ± 2.6 mN/m. It also gave a mass density ([2]; 303.15 K, x1 = 0.0687) of 1003.6 ± 6.2 kg/m3, a mass density ([2]; 303.15 K, x1 = 0.1122) of 1008.2 ± 6 kg/m3 and a mass density ([2]; 303.15 K, x1 = 0.1643) of 1013.3 ± 5.7 kg/m3. The mass density ([2]; 303.15 K, x1 = 0.2277) was 1017.8 ± 5.4 kg/m3, the mass density ([2]; 303.15 K, x1 = 0.3067) was 1021.3 ± 5.1 kg/m3 and the mass density ([2]; 303.15 K, x1 = 0.4076) was 1022.6 ± 4.9 kg/m3. The surface tension liquid-gas ([2]; 313.15 K, x1 = 0.0687) was 65.2 ± 2.9 mN/m, the surface tension liquid-gas ([2]; 313.15 K, x1 = 0.1122) was 62.4 ± 2.8 mN/m and the surface tension liquid-gas ([2]; 313.15 K, x1 = 0.1643) was 59.8 ± 2.7 mN/m. For the same molecule, the surface tension liquid-gas ([2]; 313.15 K, x1 = 0.2277) was 58.1 ± 2.7 mN/m, the surface tension liquid-gas ([2]; 313.15 K, x1 = 0.3067) was 56.1 ± 2.6 mN/m and the surface tension liquid-gas ([2]; 313.15 K, x1 = 0.4076) was 53.6 ± 2.6 mN/m. For the same molecule, the mass density ([2]; 313.15 K, x1 = 0.0687) was 999.4 ± 6.2 kg/m3, the mass density ([2]; 313.15 K, x1 = 0.1122) was 1003.3 ± 5.9 kg/m3 and the mass density ([2]; 313.15 K, x1 = 0.1643) was 1007.8 ± 5.7 kg/m3. It also gave a mass density ([2]; 313.15 K, x1 = 0.2277) of 1011.8 ± 5.4 kg/m3, a mass density ([2]; 313.15 K, x1 = 0.3067) of 1014.6 ± 5.1 kg/m3 and a mass density ([2]; 313.15 K, x1 = 0.4076) of 1015.5 ± 4.8 kg/m3. For the same molecule, the surface tension liquid-gas ([2]; 323.15 K, x1 = 0.0687) was 63.6 ± 2.8 mN/m, the surface tension liquid-gas ([2]; 323.15 K, x1 = 0.1122) was 61 ± 2.8 mN/m and the surface tension liquid-gas ([2]; 323.15 K, x1 = 0.1643) was 58.4 ± 2.7 mN/m. The surface tension liquid-gas ([2]; 323.15 K, x1 = 0.2277) was 56.5 ± 2.7 mN/m, the surface tension liquid-gas ([2]; 323.15 K, x1 = 0.3067) was 55 ± 2.6 mN/m and the surface tension liquid-gas ([2]; 323.15 K, x1 = 0.4076) was 52.5 ± 2.5 mN/m. It also gave a mass density ([2]; 323.15 K, x1 = 0.0687) of 994.6 ± 6.1 kg/m3, a mass density ([2]; 323.15 K, x1 = 0.1122) of 998.1 ± 5.9 kg/m3 and a mass density ([2]; 323.15 K, x1 = 0.1643) of 1002.1 ± 5.7 kg/m3. For the same molecule, the mass density ([2]; 323.15 K, x1 = 0.2277) was 1005.4 ± 5.4 kg/m3, the mass density ([2]; 323.15 K, x1 = 0.3067) was 1007.8 ± 5.1 kg/m3 and the mass density ([2]; 323.15 K, x1 = 0.4076) was 1008.2 ± 4.8 kg/m3. It also gave a surface tension liquid-gas ([2]; 333.15 K, x1 = 0.0687) of 61.6 ± 2.8 mN/m, a surface tension liquid-gas ([2]; 333.15 K, x1 = 0.1122) of 59.5 ± 2.8 mN/m and a surface tension liquid-gas ([2]; 333.15 K, x1 = 0.1643) of 57 ± 2.7 mN/m. The surface tension liquid-gas ([2]; 333.15 K, x1 = 0.2277) was 55.1 ± 2.6 mN/m, the surface tension liquid-gas ([2]; 333.15 K, x1 = 0.3067) was 53.6 ± 2.6 mN/m and the surface tension liquid-gas ([2]; 333.15 K, x1 = 0.4076) was 51.2 ± 2.5 mN/m. It also gave a mass density ([2]; 333.15 K, x1 = 0.0687) of 989.1 ± 6.1 kg/m3, a mass density ([2]; 333.15 K, x1 = 0.1122) of 992.3 ± 5.9 kg/m3 and a mass density ([2]; 333.15 K, x1 = 0.1643) of 995.7 ± 5.6 kg/m3. The mass density ([2]; 333.15 K, x1 = 0.2277) was 998.7 ± 5.4 kg/m3, the mass density ([2]; 333.15 K, x1 = 0.3067) was 1000.6 ± 5.1 kg/m3 and the mass density ([2]; 333.15 K, x1 = 0.4076) was 1000.6 ± 4.8 kg/m3.

`O` [water] showed a surface tension liquid-gas ([1]; 293.15 K) of 72.56 ± 2 mN/m, a surface tension liquid-gas ([1]; 303.15 K) of 70.9 ± 2 mN/m and a surface tension liquid-gas ([1]; 313.15 K) of 69.81 ± 1.9 mN/m. The surface tension liquid-gas ([1]; 323.15 K) was 67.72 ± 1.9 mN/m.
